Results reported in US8183379B2, “Antitumor agents” (Wayne State University, priority 2005, dated 2012).
Like-named read-outs stand apart in the source and are kept apart here.

Columns and labels:
[1] = system: Mammary Adenocarcinoma 16/C; assay: Exp 2877A: evaluation against early stage Mammary Adenocarcinoma 16/C implanted SC in C3H female mice; type: in vivo
Method: In Experiment #2877A the following general methodologies were employed:
Tumor and Animal Maintenance
Mammary adenocarcinoma-16/C were used in the studies. […] The mice were supplied food and water ad libitum.
Chemotherapy of Solid Tumors
Animals were pooled, implanted subcutaneously with 30 to 60 mg tumor fragments by a 12 gauge trocar on day 0, and again pooled before unselective distribution to the various treatment and control groups. For early stage treatment, chemotherapy was started within 1 to 3 days after tumor implantation while the number of cells was relatively small (10^7 to 10^8 cells). Tumors were measured with a caliper twice weekly. Mice were sacrificed when their tumors reached 1500 mg. Tumor weights are estimated from two-dimensional measurements:
Tumor weight (in mg)=(a×b^2)/2, where a and b are the tumor length and width in (mm), respectively.
End Points for Assessing Antitumor Activity for Solid Tumors
The following quantitative endpoints were used to assess antitumor activity: • a) Tumor growth delay (T−C value), where T is the median time (in days) required for the treatment group tumors to reach a predetermined size (e.g., 1000 mg), and C is the median time (in days) for the control group tumors to reach the same size. Tumor-free survivors are excluded from these calculations (cures are tabulated separately). This value is an important criterion of antitumor effectiveness because it allows the quantification of tumor cell kill. • b) Calculation of tumor cell kill For subcutaneously (SC) growing tumors, the log10 cell kill was calculated from the following formula:
[formula] where T−C is the tumor growth delay as described above and Td is the tumor volume doubling time (in days), estimated from the best fit straight line from a log-linear growth plot of the control group tumors in exponential growth (100 to 800 mg range). The conversion of the T−C values to log10 cell kill is possible because the Td of tumors regrowing post treatment (Rx) approximates the Td values of the tumors in untreated control mice.
The issue of conversion of tumor growth delay (T−C value) to log tumor cell kill is justified in this series because of the large number of cures obtained with 5 of the agents in this XK469 series that have been previously studied and patented. Cures are a clear indication of tumor cell kill (rather than stasis of tumor cell replication).
In selected cases, both for historic in vivo evaluation data as well as data presented here, it is of value to compare log kill numbers from trials of markedly different testing schedules. For this purpose, an activity table was created, and is presented below. It should be noted that an activity rating of +++ to ++++ is needed to effect partial regression (PR) or complete regression (CR) of 100 to 300 mg size masses of most transplanted solid tumors of mice. Thus, an activity rating of + or ++ would not be scored as active by usual clinical criteria. A PR is a reduction in tumor mass to less than 50% of pretreatment size. A CR is a reduction in tumor mass to below palpable size (i.e., reduction to zero detectable mass).

[2] = Method: Mammary adenocarcinoma-16/C were used in the studies. Tumors were maintained in the mouse strain of origin C3H (for the mammary tumors). Individual mouse body weights for each experiment were within 5 grams, and all mice were over 17 grams at the start of therapy. The mice were supplied food and water ad libitum.
The treatment and control groups were measured when the control group tumors reach approximately 700 to 1200 mg in size (median of group). The T/C value in percent is an indication of antitumor effectiveness: A T/C=0% means no tumor growth. […] A T/C equal to or less than 42% is considered significant antitumor activity by the Drug Evaluation Branch of the Division of Cancer Treatment (NCI). A T/C value <10% is considered to indicate highly significant antitumor activity, and is the level used by NCI to justify a clinical trial if toxicity, formulation, and certain other requirements are met (termed DN-2 level activity).

[3] = system: transplantable mouse tumors; conditions: cited from earlier work
[4] = Cg 6, IV Q2dx7, 48-60 mg/kg, total 372 mg/kg
[5] = Cg 7, IV Q2dx7, 30-38 mg/kg, total 234 mg/kg
[6] = Cg 4, IV Q2dx7, 54 mg/kg, total 378 mg/kg
[7] = Cg 5, IV Q2dx7, 34 mg/kg, total 238 mg/kg
[8] = Cg 8, IV Qd1,3,5,7-13, 57-125 mg/kg, total 822 mg/kg
[9] = Cg 9, IV Qd1,3,5,7-13, 36-75 mg/kg, total 513 mg/kg

COc1c(Cl)ccc2ccc(Oc3ccc(OC(C)C(=O)O)cc3)nc12 (stereo not drawn) [SH140R, 2-(4-(7-Chloro-8-methoxyquinolin-2-yloxy)phenoxy)propanoic acid]
Activity rating (Comments) [1, 4]: (++++) (Highly active ++++ >2.8) | Log Cell Kill Gross [1, 4]: 4.8 | Log Cell Kill Net [1, 4]: 1.2 | Median Tumor Burden in mg on d10 [1, 4]: 0 mg | T-C [1, 4]: 16 days | T/C % [1, 4]: 0% | Time to 1000 mg [1, 4]: 25 days | Tumor Free on d43 [1, 4]: 0/5 | Activity rating (Comments) [1, 5]: (++++) (Highly active ++++ >2.8) | Log Cell Kill Gross [1, 5]: 3.6 | Log Cell Kill Net [1, 5]: 0 | Median Tumor Burden in mg on d10 [1, 5]: 63 mg | T-C [1, 5]: 12 days | T/C % [1, 5]: 5.5% | Time to 1000 mg [1, 5]: 21 days | Tumor Free on d43 [1, 5]: 0/5 | Drug Death (day of death) [2, 4]: 0/5 | Drug Death (day of death) [2, 5]: 0/5

COc1c(Br)ccc2ccc(Oc3ccc(OC(C)C(=O)O)cc3)nc12 (stereo not drawn) [SH135R, 2-(4-(7-Bromo-8-methoxyquinolin-2-yloxy)phenoxy)propanoic acid]
Activity rating (Comments) [1, 6]: (++++) (Highly active ++++ >2.8) | Log Cell Kill Gross [1, 6]: 5.0 | Log Cell Kill Net [1, 6]: 1.4 | Median Tumor Burden in mg on d10 [1, 6]: 0 mg | T-C [1, 6]: 16.5 days | T/C % [1, 6]: 0% | Time to 1000 mg [1, 6]: 25.5 days | Tumor Free on d43 [1, 6]: 0/5 | Activity rating (Comments) [1, 7]: (++++) (Highly active ++++ >2.8) | Log Cell Kill Gross [1, 7]: 4.2 | Log Cell Kill Net [1, 7]: 0.6 | Median Tumor Burden in mg on d10 [1, 7]: 63 mg | T-C [1, 7]: 14 days | T/C % [1, 7]: 5.5% | Time to 1000 mg [1, 7]: 23 days | Tumor Free on d43 [1, 7]: 0/4 | T/C % ([1]; Cg 5, IV Q2dx7, 34 mg/kg, total 238 mg/kg, listed as SH 135(R)): 0%

COc1c(F)ccc2ccc(Oc3ccc(OC(C)C(=O)O)cc3)nc12 (stereo not drawn) [SH144R, 2-(4-(7-Fluoro-8-methoxyquinolin-2-yloxy)phenoxy)propanoic acid]
Activity rating (Comments) [1, 8]: (++++) (Highly active ++++ >2.8) | Log Cell Kill Gross [1, 8]: 4.1 | Log Cell Kill Net [1, 8]: 0.5 | Median Tumor Burden in mg on d10 [1, 8]: 0 mg | T-C [1, 8]: 13.5 days | T/C % [1, 8]: 0% | Time to 1000 mg [1, 8]: 22.5 days | Tumor Free on d43 [1, 8]: 0/4 | Activity rating (Comments) [1, 9]: (+++) (2.0-2.8) | Log Cell Kill Gross [1, 9]: 2.1 | Log Cell Kill Net [1, 9]: −1.5 | Median Tumor Burden in mg on d10 [1, 9]: 320 mg | T-C [1, 9]: 7 days | T/C % [1, 9]: 28% | Time to 1000 mg [1, 9]: 16 days | Tumor Free on d43 [1, 9]: 0/5 | Drug Death (day of death) [2, 8]: 0/4 | Drug Death (day of death) ([2]; Cg 8, IV Qd1,3,5,7-13, 57-125 mg/kg, total 822 mg/kg, listed as SH 144(R)): no drug deaths | Drug Death (day of death) [2, 9]: 0/5

CC(Oc1ccc(Oc2cnc3ccc(Cl)cc3n2)cc1)C(=O)[O-].[Na+] (stereo not drawn) [XK469]
activity against transplantable mouse tumors ([3]; Corbett et al., Investigational New Drugs 16, 129-139 (1998)): broad activity | undesirable side effects ([3]; reported, in vivo): in vivo toxicity, e.g., paralytic ileus, GI-epithelial damage, marrow toxicity, neuromuscular toxicity and weight loss | potency ([3]; reported): relatively low potency
